Assay results from paper PMC6127211, “The DnaA AAA+ Domain His136 Residue Directs DnaB Replicative Helicase to the Unwound Region of the Replication Origin, oriC” (Frontiers in Microbiology, 2018).
Read-outs that look alike come from different tables or passages of the source.

Experiments:
DnaA (wild-type DnaA) = target: T1, DnaA (wild-type DnaA) (Escherichia coli, UniProt P03004); experiment: nucleotide binding to purified DnaA (method not described)
T1 construct: full-length wild-type DnaA, overproduced from pKA234 (arabinose-inducible pING derivative) in E. coli KA450 and purified; no tag mentioned
T1 sequence (P03004 1-467): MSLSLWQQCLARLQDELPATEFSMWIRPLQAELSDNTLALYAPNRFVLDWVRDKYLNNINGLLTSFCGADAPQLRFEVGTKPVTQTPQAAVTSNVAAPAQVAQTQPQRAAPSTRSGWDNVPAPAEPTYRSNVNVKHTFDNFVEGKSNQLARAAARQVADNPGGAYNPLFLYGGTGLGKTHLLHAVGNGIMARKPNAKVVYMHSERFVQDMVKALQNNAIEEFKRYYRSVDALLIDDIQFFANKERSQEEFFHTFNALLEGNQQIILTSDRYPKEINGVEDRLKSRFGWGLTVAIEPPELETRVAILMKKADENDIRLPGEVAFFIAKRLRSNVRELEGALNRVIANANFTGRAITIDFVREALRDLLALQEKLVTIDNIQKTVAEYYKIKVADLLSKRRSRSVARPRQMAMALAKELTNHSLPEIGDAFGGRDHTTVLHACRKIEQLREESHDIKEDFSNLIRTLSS
Description: (§1) nucleotide binding to purified DnaA (method not described) on DnaA (wild-type DnaA)

DnaA = target: T2, DnaA (Escherichia coli, UniProt P03004, H136A); experiment: as above
T2 construct: full-length wild-type DnaA, overproduced from pKA234 (arabinose-inducible pING derivative) in E. coli KA450 and purified; no tag mentioned
T2 sequence (P03004 1-467 H136A): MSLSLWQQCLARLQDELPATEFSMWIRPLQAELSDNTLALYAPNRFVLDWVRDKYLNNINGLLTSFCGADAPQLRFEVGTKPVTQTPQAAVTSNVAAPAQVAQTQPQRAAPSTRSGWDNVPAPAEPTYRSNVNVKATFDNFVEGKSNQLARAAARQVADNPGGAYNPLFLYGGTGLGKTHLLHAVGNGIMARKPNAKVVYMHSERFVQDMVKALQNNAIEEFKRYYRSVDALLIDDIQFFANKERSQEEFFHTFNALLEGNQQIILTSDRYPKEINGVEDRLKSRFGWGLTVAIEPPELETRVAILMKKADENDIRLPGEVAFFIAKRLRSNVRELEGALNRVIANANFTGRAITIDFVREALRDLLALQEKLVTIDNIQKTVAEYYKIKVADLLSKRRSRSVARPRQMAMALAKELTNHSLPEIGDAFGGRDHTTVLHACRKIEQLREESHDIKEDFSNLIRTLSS
Description: as §1

[1] = target: T3, DnaB replicative helicase (E. coli, UniProt P0ACB0 1-471); experiment: pull-down; biotinylated oriC DNA (bio-oriC, 419 bp, 0.1 pmol) incubated on ice for 10 min with 5 pmol ATP-DnaA and different amounts of DnaB in buffer G (20 mM HEPES-KOH pH 7.6, 5 mM magnesium acetate, 1 mM EDTA, 10% glycerol, 0.1% Triton X-100, 4 mM DTT) with 1 mM ATP; recovered with streptavidin-coated beads; washed once with buffer G without KCl; silver staining with quantitative standards; no DnaC; conditions: both partners purified
T3 construct: DnaB replicative helicase, Escherichia coli; No tag is named for the DnaB of the bio-oriC pull-down; The Form I* assay used His-DnaB and the His-DnaB pull-down used His-DnaB K236A; these forms are named in the readout of the functional rows; also called DnaB helicase

Molecule: Nc1ncnc2c1ncn2[C@@H]1O[C@H](COP(=O)(O)OP(=O)(O)OP(=O)(O)O)[C@@H](O)[C@H]1O [ATP]
- Kd (DnaA (wild-type DnaA); read-out: KD (nM) / ATP): 24 nM
- Kd (DnaA; read-out: KD (nM) / ATP): 21 nM

Molecule: Nc1ncnc2c1ncn2[C@@H]1O[C@H](COP(=O)(O)OP(=O)(O)O)[C@@H](O)[C@H]1O [ADP]
- Kd (DnaA (wild-type DnaA); read-out: KD (nM) / ADP): 35 nM
- Kd (DnaA; read-out: KD (nM) / ADP): 50 nM

B1: wild-type DnaA (natural protein, E. coli, UniProt P03004 1-467, looked up)
chain: MSLSLWQQCLARLQDELPATEFSMWIRPLQAELSDNTLALYAPNRFVLDWVRDKYLNNINGLLTSFCGADAPQLRFEVGTKPVTQTPQAAVTSNVAAPAQVAQTQPQRAAPSTRSGWDNVPAPAEPTYRSNVNVKHTFDNFVEGKSNQLARAAARQVADNPGGAYNPLFLYGGTGLGKTHLLHAVGNGIMARKPNAKVVYMHSERFVQDMVKALQNNAIEEFKRYYRSVDALLIDDIQFFANKERSQEEFFHTFNALLEGNQQIILTSDRYPKEINGVEDRLKSRFGWGLTVAIEPPELETRVAILMKKADENDIRLPGEVAFFIAKRLRSNVRELEGALNRVIANANFTGRAITIDFVREALRDLLALQEKLVTIDNIQKTVAEYYKIKVADLLSKRRSRSVARPRQMAMALAKELTNHSLPEIGDAFGGRDHTTVLHACRKIEQLREESHDIKEDFSNLIRTLSS
notes: DnaA, chromosomal replication initiator protein, Escherichia coli; wild-type dnaA-coding region of pKA234; also called WT; ATP-DnaA; source: E. coli KA450, overproduced from pKA234, purified
- binding result [1]: binds

B2: DnaA H136A (natural protein, E. coli, UniProt P03004 1-467, looked up)
chain: MSLSLWQQCLARLQDELPATEFSMWIRPLQAELSDNTLALYAPNRFVLDWVRDKYLNNINGLLTSFCGADAPQLRFEVGTKPVTQTPQAAVTSNVAAPAQVAQTQPQRAAPSTRSGWDNVPAPAEPTYRSNVNVKATFDNFVEGKSNQLARAAARQVADNPGGAYNPLFLYGGTGLGKTHLLHAVGNGIMARKPNAKVVYMHSERFVQDMVKALQNNAIEEFKRYYRSVDALLIDDIQFFANKERSQEEFFHTFNALLEGNQQIILTSDRYPKEINGVEDRLKSRFGWGLTVAIEPPELETRVAILMKKADENDIRLPGEVAFFIAKRLRSNVRELEGALNRVIANANFTGRAITIDFVREALRDLLALQEKLVTIDNIQKTVAEYYKIKVADLLSKRRSRSVARPRQMAMALAKELTNHSLPEIGDAFGGRDHTTVLHACRKIEQLREESHDIKEDFSNLIRTLSS
notes: DnaA, Escherichia coli, with the substitution H136A in domain III; pH136A is a derivative of pKA234; also called DnaA H136A mutant protein; source: E. coli KA450, overproduced from pH136A, purified
- binding result [1]: binds
